Data on 5 compounds can be found in patent US20200224136A1, “INTESTINE-CHIP: DIFFERENTIAL GENE EXPRESSION MODEL” (priority 2019, published 2020).

Like-named read-outs stand apart in the source and are kept apart here.

For one series, the system named is GLUTag Cells. Conditions: 250 uM, 36 minutes; Active GLP-1 (ver. 2) Assay Kit (Mesoscale Discovery); cited from earlier work.
Series [1] relates to Small Intestinal Organoids. The settings on record: 30 uM DCA, 2 hours; GLP-1 (Active) assay; cited from earlier work.
The target in series [2] is T1, MDR1 (P-gp) (Homo sapiens, UniProt P08183). The settings on record: 22 μM. The protocol: (§1) To evaluate the applicability of this system for the studies of pharmacology related questions we assessed the presence and localization of major intestinal drug transporters in Duodenum-Chips established from the tissue of 3 different donors by qRT-PCR and immunofluorescent imaging.
(§2) The transporter activity of MDR-1/P-gp was assessed using the MDR1 Efflux Assay Kit (e.g., ECM910, Millipore), as per manufacturer's instructions. […] Intracellular accumulation of dye, was detected by fluorescent imaging (Olympus IX83) and measured in the presence and absence of MDR-1 specific inhibitor vinblastine (22 μM). At least three independent experiments were performed for Caco2 Intestine-Chips and Duodenum-Chips, each using chips established from a different donor of biopsy-derived organoids. At least three different chips were used per condition, images of each were taken at three different fields of view, digitally processed and quantified using Fiji software.

Series [3] concerns the target T1, MDR1 (P-gp). Conditions: 22 μM. The protocol: as §1, §2
This is another data set of the same source.

In series [4] the test system is Ileum-Chip. Put plainly: Intestinal barrier function of Ileum-Chip under TNF-α. The series is classed as cell-based, human. Conditions: vascular exposure, 100 U/ml (~2 ng/ml). The procedure:
As one example, to evaluate the integrity of the intestinal barrier 3 kDa Cascade Blue dextran (Sigma, D7132) was added to the epithelial compartment of the Duodenum-Chip at 0.1 mg/ml on the day of connecting a microfluidic device to flow, e.g., see exemplary timelines. Effluents of the endothelial compartment were sampled 3 hours after the addition of a dye, up to 24 hours, up to 48 hours, up to 72 hours, or at 48 hour intervals until the end of the assay, in order to determine the concentration of dye that has diffused through the membrane.
The apparent paracellular permeability (Papp) was calculated based on a standard curve and using the following formula: […]
(§3) TNFα induces increased membrane expression of I-CAM1 and MadCAM1 in intestinal microvascula endothelium.

For series [5], the system named is intestinal microvascular endothelium. Put plainly: TNF-α stimulation of microvasculature alone: chemokine release. The class given is cell-based, human. More on the design: unit not given here. Conditions: TNF-α 100 U/ml, n = 1, 4 chips/condition. An excerpt: (§4) Identification of MadCAM1 and characterization of microvascular response to inflammation in Ileum-Chip. Inflammation-Induced Expression of I-CAM1 and MadCAM1 in Ileum-Chip. Read-outs: mRNA expression of vascular adhesion molecules (I-CAM1, MadCAM1); Immunofluorescent detection of I-CAM1 and MadCAM1; Epithelial and vascular release of inflammatory chemokines using ELISA (Meso Scale Discovery). FIG. 13. FIG. 14.

Series [6] deals with Ileum-Chip. Put plainly: TNF-α induced inflammation in Ileum-Chip: chemokine release (ELISA) and I-CAM1/MadCAM1 expression. The class given is cell-based, human. More on the design: Apical CXCL11 (1-TAC) / Apical CCL20 (MIP-3 alpha) / Basal CCL25 (TECK) / Basal CXCL8 (IL-8) / Basal CXCLIO (IP-10) / Basal CXCL11 (1-TAC) / Basal CCL20 (MIP-3 alpha) / Apical CCL25 (TECK) / Apical CXCL8 (IL-8) / Apical CXCLIO (IP-10): unit not given here.
Excerpt: as §3, §4
Summary of Evaluation of Microvascular Function in Ileum-Chip.
(ELISA stands for enzyme-linked immunosorbent assay.)

The test system of series [7] is Mixed primary cultures (upper half of SI). Conditions: 10 mM, 2-4 hours; Active GLP-1 ELISA-kit (Millipore); cited from earlier work.
Series [8] concerns Endoscopic duodenal biopsies. Conditions: 300 mM, Intraduodenal Glucose Infusion, 30 min; GLP-1 (Active) ELISA Kit (Millipore); cited from earlier work.
For series [9], the system named is Mixed primary cultures (Colon). Conditions: 10 mM, 2-4 hours; Active GLP-1 ELISA-kit (Millipore); cited from earlier work.
Setting [10] is: TNF-α 100 U/ml, n = 1, 4 chips/condition.

T1 sequence (P08183 whole entry): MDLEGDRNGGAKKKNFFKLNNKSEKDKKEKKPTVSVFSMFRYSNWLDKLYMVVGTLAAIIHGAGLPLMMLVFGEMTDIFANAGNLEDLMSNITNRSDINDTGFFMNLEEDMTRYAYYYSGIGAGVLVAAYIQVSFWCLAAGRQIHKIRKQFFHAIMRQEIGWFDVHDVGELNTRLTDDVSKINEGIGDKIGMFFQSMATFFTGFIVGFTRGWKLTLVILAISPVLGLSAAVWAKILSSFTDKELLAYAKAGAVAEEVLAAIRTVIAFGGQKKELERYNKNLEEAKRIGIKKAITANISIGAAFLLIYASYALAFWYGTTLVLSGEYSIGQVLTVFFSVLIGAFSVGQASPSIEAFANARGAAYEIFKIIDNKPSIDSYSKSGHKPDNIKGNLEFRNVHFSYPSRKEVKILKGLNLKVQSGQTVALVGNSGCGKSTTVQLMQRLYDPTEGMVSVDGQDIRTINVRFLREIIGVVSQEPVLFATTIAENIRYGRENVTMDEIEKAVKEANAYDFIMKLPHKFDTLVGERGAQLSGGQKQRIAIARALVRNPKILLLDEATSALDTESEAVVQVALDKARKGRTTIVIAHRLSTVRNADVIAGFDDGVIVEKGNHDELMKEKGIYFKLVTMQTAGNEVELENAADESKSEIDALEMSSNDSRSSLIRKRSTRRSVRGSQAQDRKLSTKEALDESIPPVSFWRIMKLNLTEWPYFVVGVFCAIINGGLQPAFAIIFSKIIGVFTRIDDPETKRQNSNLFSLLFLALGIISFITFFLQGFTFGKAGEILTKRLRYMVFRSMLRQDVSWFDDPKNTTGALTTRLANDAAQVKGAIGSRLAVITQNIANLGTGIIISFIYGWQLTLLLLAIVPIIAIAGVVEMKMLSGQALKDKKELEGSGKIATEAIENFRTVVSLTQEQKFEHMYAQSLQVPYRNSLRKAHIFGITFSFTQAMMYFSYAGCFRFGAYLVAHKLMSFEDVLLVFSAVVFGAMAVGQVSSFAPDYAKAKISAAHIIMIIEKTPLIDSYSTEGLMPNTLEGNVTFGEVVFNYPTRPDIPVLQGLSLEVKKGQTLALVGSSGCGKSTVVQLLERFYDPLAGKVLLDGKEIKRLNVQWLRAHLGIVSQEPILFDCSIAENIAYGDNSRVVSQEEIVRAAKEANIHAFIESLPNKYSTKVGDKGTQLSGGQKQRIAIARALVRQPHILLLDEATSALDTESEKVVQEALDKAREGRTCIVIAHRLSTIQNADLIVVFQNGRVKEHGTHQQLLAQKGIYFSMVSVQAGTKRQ

`CCCCCCCC/C=C\CCCCCCCC(=O)O` [Oleic Acid]: in the series with GLUTag Cells, the “GLP-1 Concentration (fold increase)” value is on record as 4-fold increase.

Consider `C[C@H](CCC(=O)O)[C@H]1CC[C@H]2[C@@H]3CC[C@@H]4C[C@H](O)CC[C@]4(C)[C@H]3C[C@H](O)[C@]12C` [DCA], for which the “GLP-1 Concentration (fold increase)” value in series [1] is recorded as 2.5-fold increase.

As to `CC[C@]1(O)C[C@@H]2CN(CCc3c([nH]c4ccccc34)[C@@](C(=O)OC)(c3cc4c(cc3OC)N(C)[C@H]3[C@@](O)(C(=O)OC)[C@H](OC(C)=O)[C@]5(CC)C=CCN6CC[C@]43[C@@H]65)C2)C1` [vinblastine], the “increase in intracellular accumulation of rhodamine 123” value is reported as 1.84 fold at MDR1 (P-gp) [2] and 2.14 fold at MDR1 (P-gp) [3].

With TNF-α, in the series with Ileum-Chip [4], the “effect on intestinal barrier function” value was “does not affect”. Also, in series [5], the “Apical CCL20 (MIP-3 alpha)” value worked out at 0.74 ±0.9, the “Apical CXCL8 (IL-8)” value was 105.5 ± 74.2, the “Apical CXCL11 (1-TAC)” value came out at 0.53 ± 1.0 and the “Apical CXCLIO (IP-10)” value was determined as 0.19 ± 0.1. Further, in series [5], the “Basal CCL20 (MIP-3 alpha)” value came out at 3.51 ± 2.8, the “Basal CXCL8 (IL-8)” value was 1835.44 ± 282.8, the “Basal CXCL11 (1-TAC)” value is given as 1.74 ± 1.4 and the “Basal CXCLIO (IP-10)” value is recorded as 35.22 ± 20.1. For the same compound, in the series with Ileum-Chip [6] (100 U/ml), the “membrane expression of I-CAM1 and MadCAM1 in intestinal microvascular endothelium” value was “increased”. Moreover, in the series on Ileum-Chip [6] (setting [10]), the “Apical CCL20 (MIP-3 alpha)” value is reported as 170.92 ± 36.8, the “Apical CCL25 (TECK)” value was 17.11 ± 9.2, the “Apical CXCL8 (IL-8)” value was found to be 16.30 ± 5.9 and the “Apical CXCL11 (1-TAC)” value is 302.01 ± 111.8. In addition, in the series on Ileum-Chip [6] (setting [10]), the “Apical CXCLIO (IP-10)” value was found to be 6.34 ± 2.3, the “Basal CCL20 (MIP-3 alpha)” value is listed as 93.93 ± 18.3, the “Basal CCL25 (TECK)” value came to 117.91 ± 16.1 and the “Basal CXCL8 (IL-8)” value amounted to 1868.99 ± 198.7. Besides, in the series on Ileum-Chip [6] (setting [10]), the “Basal CXCL11 (1-TAC)” value is recorded as 26.00 ± 9.1 and the “Basal CXCLIO (IP-10)” value amounted to 502.04 ± 287.1.

In the case of `OC[C@H]1OC(O)[C@H](O)[C@@H](O)[C@@H]1O` (stereo partly drawn) [Glucose], in [7], the “GLP-1 Concentration (fold increase), SI” value is “(Colon), 2-fold”. The “GLP-1 Concentration (fold increase)” value in series [8] was 3-fold increase. Further, the “GLP-1 Concentration (fold increase), Colon” value in [9] is on record as 10-fold increase.
